Laboratory results reported in patent US11033539B2, “Compounds of formulas (VII), (VIII), (IX), (XI), (XII), (XIII), and (XIV) as muscarinic receptor 4(M4) antagonists for treating neurological diseases” (Neurocrine Biosciences, Inc., priority 2015, dated 2021).

target: human M4 receptor (Homo sapiens (Human), UniProt P08173); assay: Radioligand (tritiated N-methylscopolamine) binding assay, M4; settings: Ki against the M4 receptor; membranes from CHO cells expressing human M4; tritiated N-methylscopolamine 1.5 nM; read-out: Ki
Experimental: Binding affinity (Ki) of compounds was measured by inhibition of radioligand binding to membranes from CHO cells expressing human M1, M2, M3, M4 and M5 receptors. Membranes were prepared by nitrogen cavitation and differential centrifugation as previously described (Hoare et al., Mol. Pharmacol. 2003 March; 63(3): 751-65). The radioligand employed was tritiated N-methylscopolamine, used at a concentration of 1.5 nM. A dose-response of twelve concentrations of compound was used, ranging from 10 μM to […]. The assay buffer was 50 mM HEPES, 100 mM NaCl, 5 mM MgCl2, 1 mM ethylenediaminetetraacetic acid, pH-adjusted to pH 7.4. Membranes, radioligand and compound were incubated together for 90 minutes at 37° C., in a total volume of 150 μl in a 96-well plate. Receptor-bound radioligand was then collected by harvesting the assay over glass fiber filters pretreated with polyethylenimine to trap the cell membranes, using rapid vacuum filtration. Harvesting and radioactivity counting was conducted as previously described (see, e.g., Hoare et al., Mol. Pharmacol. 2003 63(3):751-65); Erratum at Mol. Pharmacol. 2005 July; 68(1): 260).

Sequence of human M4 receptor (P08173 whole entry): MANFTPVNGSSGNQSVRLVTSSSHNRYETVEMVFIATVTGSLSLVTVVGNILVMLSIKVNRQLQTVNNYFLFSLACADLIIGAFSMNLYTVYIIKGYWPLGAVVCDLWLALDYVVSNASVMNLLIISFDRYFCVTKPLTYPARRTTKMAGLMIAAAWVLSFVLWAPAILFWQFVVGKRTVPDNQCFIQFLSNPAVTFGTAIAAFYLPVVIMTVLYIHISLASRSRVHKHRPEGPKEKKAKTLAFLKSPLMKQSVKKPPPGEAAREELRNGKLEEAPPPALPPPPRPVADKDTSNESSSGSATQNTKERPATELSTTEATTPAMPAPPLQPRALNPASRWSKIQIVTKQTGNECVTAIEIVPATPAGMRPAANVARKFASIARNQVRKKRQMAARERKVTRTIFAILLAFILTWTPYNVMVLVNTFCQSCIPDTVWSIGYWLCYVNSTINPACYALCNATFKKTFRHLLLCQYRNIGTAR

Row | Ki [µM] | SMILES
1 | 0.1 to 1 | C[C@@H]1CN(c2ncccn2)CCN1C(=O)NCCC1CCN(Cc2ccccc2)CC1 [4-64, (2R)-N-[2-(1-benzylpiperidin-4-yl)ethyl]-2-methyl-4-(pyrimidin-2-yl)piperazine-1-carboxamide]
2 | 0.01 to 0.1 | COc1nc(N2C[C@@H](C)N(C(=O)NCCC3CCN(Cc4ccccc4)CC3)[C@@H](C)C2)ncc1C#N [4-69, (2R,6S)-N-[2-(1-benzylpiperidin-4-yl)ethyl]-4-(5-cyano-4-methoxypyrimidin-2-yl)-2,6-dimethylpiperazine-1-carboxamide]
3 | 0.01 to 0.1 | COc1ccc(N2CCN(C(=O)NCCC3CCN(Cc4ccccc4)CC3)[C@H](C)C2)cc1F [4-70, (2R)-N-[2-(1-benzylpiperidin-4-yl)ethyl]-4-(3-fluoro-4-methoxyphenyl)-2-methylpiperazine-1-carboxamide]
4 | 0.01 to 0.1 | O=C(NCCC1CCN(Cc2ccccc2)CC1)N1CCN(c2cc(F)c(F)c(F)c2)CC1 [4-74, N-[2-(1-benzylpiperidin-4-yl)ethyl]-4-(3,4,5-trifluorophenyl)piperazine-1-carboxamide]
5 | 0.01 to 0.1 | C[C@@H]1CN(c2nc(C#N)cc(C#N)n2)CCN1C(=O)NCCC1CCN(Cc2ccccc2)CC1 [4-75, (2R)-N-[2-(1-benzylpiperidin-4-yl)ethyl]-4-(4,6-dicyanopyrimidin-2-yl)-2-methylpiperazine-1-carboxamide]
6 | 0.01 to 0.1 | C[C@@H]1CN(c2ncc(C#N)cc2F)C[C@H](C)N1C(=O)NCCC1CCN(Cc2ccccc2)CC1 [4-78, (2S,6R)-N-[2-(1-benzylpiperidin-4-yl)ethyl]-4-(5-cyano-3-fluoropyridin-2-yl)-2,6-dimethylpiperazine-1-carboxamide]
7 | 0.1 to 1 | C[C@@H]1CN(c2ncc(C(=O)O)cn2)CCN1C(=O)NCCC1CCN(Cc2ccccc2)CC1 [5-2, 2-[(3R)-4-{[2-(1-benzylpiperidin-4-yl)ethyl]carbamoyl}-3-methylpiperazin-1-yl]pyrimidine-5-carboxylic acid]
8 | 0.1 to 1 | C[C@@H]1CN(c2ncc(Cl)c(Cl)n2)CCN1C(=O)NCCC1CCN(Cc2ccccc2)CC1 [5-3, (2R)-N-[2-(1-benzylpiperidin-4-yl)ethyl]-4-(4,5-dichloropyrimidin-2-yl)-2-methylpiperazine-1-carboxamide]
9 | 0.01 to 0.1 | C[C@@H]1CN(c2ncc(C#N)c(NCC(F)(F)F)n2)C[C@H](C)N1C(=O)NCCC1CCN(Cc2ccccc2)CC1 [5-4, (2S,6R)-N-[2-(1-benzylpiperidin-4-yl)ethyl]-4-{5-cyano-4-[(2,2,2-trifluoroethyl)amino]pyrimidin-2-yl}-2,6-dimethylpiperazine-1-carboxamide]
10 | 0.01 to 0.1 | C[C@@H]1CN(c2nc(F)c(F)c(F)n2)CCN1C(=O)NCCC1CCN(Cc2ccccc2)CC1 [5-6, (2R)-N-[2-(1-benzylpiperidin-4-yl)ethyl]-2-methyl-4-(trifluoropyrimidin-2-yl)piperazine-1-carboxamide]
11 | 0.01 to 0.1 | C[C@@H]1CN(c2ncc(C#N)c(NCC(F)(F)F)n2)CCN1C(=O)NCCC1CCN(Cc2ccccc2)CC1 [5-7, (2R)-N-[2-(1-benzylpiperidin-4-yl)ethyl]-4-{5-cyano-4-[(2,2,2-trifluoroethyl)amino]pyrimidin-2-yl}-2-methylpiperazine-1-carboxamide]
12 | 0.1 to 1 | C[C@@H]1CN(c2ncc(F)c(Cl)n2)CCN1C(=O)NCCC1CCN(Cc2ccccc2)CC1 [5-9, (2R)-N-[2-(1-benzylpiperidin-4-yl)ethyl]-4-(4-chloro-5-fluoropyrimidin-2-yl)-2-methylpiperazine-1-carboxamide]
13 | 0.1 to 1 | C[C@@H]1CN(c2ncc(Br)c(Cl)n2)CCN1C(=O)NCCC1CCN(Cc2ccccc2)CC1 [5-10, (2R)-N-[2-(1-benzylpiperidin-4-yl)ethyl]-4-(5-bromo-4-chloropyrimidin-2-yl)-2-methylpiperazine-1-carboxamide]
14 | 0.1 to 1 | COC(=O)c1cc(Cl)nc(N2CCN(C(=O)NCCC3CCN(Cc4ccccc4)CC3)[C@H](C)C2)n1 [5-11, methyl 2-[(3R)-4-{[2-(1-benzylpiperidin-4-yl)ethyl]carbamoyl}-3-methylpiperazin-1-yl]-6-chloropyrimidine-4-carboxylate]
15 | 0.1 to 1 | COC(=O)c1cc(C)nc(N2CCN(C(=O)NCCC3CCN(Cc4ccccc4)CC3)[C@H](C)C2)n1 [5-12, methyl 2-[(3R)-4-{[2-(1-benzylpiperidin-4-yl)ethyl]carbamoyl}-3-methylpiperazin-1-yl]-6-methylpyrimidine-4-carboxylate]
16 | 0.01 to 0.1 | C[C@@H]1CN(c2ncc(C#N)cn2)CCN1C(=O)NCCC1CCN(Cc2ccccc2)CC1 [5-13, (2R)-N-[2-(1-benzylpiperidin-4-yl)ethyl]-4-(5-cyanopyrimidin-2-yl)-2-methylpiperazine-1-carboxamide]

Row | Ki [µM] | SMILES
17 | 0.01 to 0.1 | C[C@@H]1CN(c2ncc(C#N)c(N(C)C)n2)CCN1C(=O)NCCC1CCN(Cc2ccccc2)CC1 [5-15, (2R)-N-[2-(1-benzylpiperidin-4-yl)ethyl]-4-[5-cyano-4-(dimethylamino)pyrimidin-2-yl]-2-methylpiperazine-1-carboxamide]
18 | 0.01 to 0.1 | COc1nc(N2CCN(C(=O)NCCC3CCN(Cc4ccccc4)CC3)[C@H](C)C2)ncc1C#N [5-16, (2R)-N-[2-(1-benzylpiperidin-4-yl)ethyl]-4-(5-cyano-4-methoxypyrimidin-2-yl)-2-methylpiperazine-1-carboxamide]
19 | 0.01 to 0.1 | C[C@@H]1CN(c2ncc(F)cn2)C[C@H](C)N1C(=O)NCCC1CCN(Cc2ccccc2)CC1 [5-19, (2S,6R)-N-[2-(1-benzylpiperidin-4-yl)ethyl]-4-(5-fluoropyrimidin-2-yl)-2,6-dimethylpiperazine-1-carboxamide]
20 | 0.1 to 1 | CNc1nc(N2C[C@@H](C)N(C(=O)NCCC3CCN(Cc4ccccc4)CC3)[C@@H](C)C2)ncc1C#N [5-21, (2R,6S)-N-[2-(1-benzylpiperidin-4-yl)ethyl]-4-[5-cyano-4-(methylamino)pyrimidin-2-yl]-2,6-dimethylpiperazine-1-carboxamide]
21 | 0.1 to 1 | N#Cc1cnc(N2CCN(C(=O)NCCC3CCN(Cc4ccccc4)CC3)C[C@H]2CO)nc1 [5-25, (3S)-N-[2-(1-benzylpiperidin-4-yl)ethyl]-4-(5-cyanopyrimidin-2-yl)-3-(hydroxymethyl)piperazine-1-carboxamide]
22 | 0.1 to 1 | N#Cc1cnc(N2CCN(C(=O)NCCC3CCN(Cc4ccccc4)CC3)[C@@H](CO)C2)nc1 [5-26, (2R)-N-[2-(1-benzylpiperidin-4-yl)ethyl]-4-(5-cyanopyrimidin-2-yl)-2-(hydroxymethyl)piperazine-1-carboxamide]
23 | 0.01 to 0.1 | Nc1nc(N2CCN(C(=O)NCCC3CCN(Cc4ccccc4)CC3)CC2)ncc1Cl [5-33, 4-(4-amino-5-chloropyrimidin-2-yl)-N-[2-(1-benzylpiperidin-4-yl)ethyl]piperazine-1-carboxamide]
24 | 0.1 to 1 | Nc1nc(N2CCN(C(=O)NCCC3CCN(Cc4ccccc4)CC3)CC2)ncc1F [5-34, 4-(4-amino-5-fluoropyrimidin-2-yl)-N-[2-(1-benzylpiperidin-4-yl)ethyl]piperazine-1-carboxamide]
25 | 0.1 to 1 | C[C@@H]1CN(c2cc(F)c(F)c(F)c2)CCN1C(=O)NCCC1CCN(Cc2ccc(C#N)cc2)CC1 [6-2, (2R)-N-(2-{1-[(4-cyanophenyl)methyl]piperidin-4-yl}ethyl)-2-methyl-4-(3,4,5-trifluorophenyl)piperazine-1-carboxamide]
26 | 0.01 to 0.1 | C[C@@H]1CN(c2cc(F)c(F)c(F)c2)CCN1C(=O)NCCC1CCN(Cc2ccccc2F)CC1 [6-5, (2R)-N-(2-{1-[(2-fluorophenyl)methyl]piperidin-4-yl}ethyl)-2-methyl-4-(3,4,5-trifluorophenyl)piperazine-1-carboxamide]
27 | 0.01 to 0.1 | C[C@@H]1CN(c2cc(F)c(F)c(F)c2)CCN1C(=O)NCCC1CCN(CC2CCCCC2)CC1 [6-6, (2R)-N-{2-[1-(cyclohexylmethyl)piperidin-4-yl]ethyl}-2-methyl-4-(3,4,5-trifluorophenyl)piperazine-1-carboxamide]
28 | 0.01 to 0.1 | C[C@@H]1CN(c2cc(F)c(F)c(F)c2)CCN1C(=O)NCCC1CCN(Cc2ccccn2)CC1 [6-7, (2R)-2-methyl-N-{2-[1-(pyridin-2-ylmethyl)piperidin-4-yl]ethyl}-4-(3,4,5-trifluorophenyl)piperazine-1-carboxamide]
29 | 0.01 to 0.1 | C[C@@H]1CN(c2cc(F)c(F)c(F)c2)CCN1C(=O)NCCC1CCN(Cc2csnn2)CC1 [6-8, (2R)-2-methyl-N-{2-[1-(1,2,3-thiadiazol-4-ylmethyl)piperidin-4-yl]ethyl}-4-(3,4,5-trifluorophenyl)piperazine-1-carboxamide]
30 | 0.01 to 0.1 | C[C@@H]1CN(c2cc(F)c(F)c(F)c2)CCN1C(=O)NCCC1CCN(Cc2ccc3c(c2)OCCO3)CC1 [6-9, (2R)-N-{2-[1-(2,3-dihydro-1,4-benzodioxin-6-ylmethyl)piperidin-4-yl]ethyl}-2-methyl-4-(3,4,5-trifluorophenyl)piperazine-1-carboxamide]
31 | 0.01 to 0.1 | C[C@@H]1CN(c2cc(F)c(F)c(F)c2)CCN1C(=O)NCCC1CCN(Cc2cccc(F)c2)CC1 [6-10, (2R)-N-(2-{1-[(3-fluorophenyl)methyl]piperidin-4-yl}ethyl)-2-methyl-4-(3,4,5-trifluorophenyl)piperazine-1-carboxamide]
32 | 0.01 to 0.1 | N#Cc1ccc(N2CCC(C(=O)NCCC3CCN(Cc4ccc5[nH]ccc5c4)CC3)CC2)nc1 [6-11, 1-(5-cyanopyridin-2-yl)-N-{2-[1-(1H-indol-5-ylmethyl)piperidin-4-yl]ethyl}piperidine-4-carboxamide]
